≈ marks a conversion by molar mass, not a printed value. Entries after “also recorded” stand apart in the source; their conditions may differ. Read-outs that look alike come from different tables or passages of the source.
How the values were obtained:
[1] = test system: ConA cells; experiment: Drug sensitivity (growth inhibition) assay, ConA cells; format: cell-based, mouse; conditions: for IC50: Mus musculus, murine ConA cells, read-out: 50% growth inhibitory dose of the drug
Protocol: Drug sensitivity assays. To estimate drug-mediated growth inhibition, 10^3 cells were plated per well of 96-well plates, and incubated with a range of concentrations of drugs added 24 hours after plating. […] After elution by 1% SDS solution, optical density was determined on a Multiscan Ascent reader (Lybsystems, Helsinki, Finland) at 650 nm.

[2] = target: T1, P-gp (Homo sapiens, UniProt P08183); experiment: Rho123 accumulation in KB-8-5-11 cells; format: cell-based; design: overexpressing P-gp as a result of MDR1 gene amplification (20); endogenous in cells; host or cells: KB-8-5-11 (multidrug resistant derivative of KB-3-1); conditions: KB-8-5-11 cells overexpressing P-gp
Description: (§1) Drug accumulation and efflux assay.
To test the effect of Compound 102 specifically on P-gp, a pair of human cell lines used as conventional models for studying P-gp, i.e., P-gp-negative KB-3-1 and its multidrug resistant derivative KB-8-5-11, overexpressing P-gp as a result of MDR1 gene amplification (20), were used.

[3] = test system: P-gp; experiment: Rho123 efflux from preloaded ConA cells; format: cell-based, mouse; design: increase of efflux of Rho123 from cells preloaded with the dye: dose or concentration left out as unconfirmed
Protocol: (§2) Drug accumulation and efflux assay. […] For drug efflux assay, cells after drug incubation were washed thoroughly with PBS, incubated in a drug-free media with or without compounds from the chemical library, and harvested at different time points for flow cytometric analysis (18).
The dynamics of reduction of Rho123 fluorescence was monitored by flow cytometry.

[4] = target: T1, P-gp; experiment: Drug resistance of mouse ConA cells expressing human P-gp (MDR1 cDNA transfection); format: cell-based; design: expressed in transfected cells; host or cells: mouse fibroblasts, line ConA, transfected with MDR1 cDNA in LNL6 (Mo-MuLV LTR promoter)
Description: These cells are known to overexpress P-gp as result of MDR1 gene amplification. To completely eliminate possibility that some other ABC type transporter expressed in KB-8-5-11 cells might be responsible for this phenomenon, mouse fibroblasts, line ConA, permanently expressing human P-gp as a result of transfection with MDR1 cDNA-expressing plasmid LNL6 were used.

[5] = test system: mouse ConA cells; experiment: DMBA sensitivity of mouse cells; format: cell-based
Protocol: (§3) The effect of the identified compounds on DMBA sensitivity of mouse cells also was tested. It has been reported that ABC type transporters (e.g., P-gp) are involved in the efflux of polycyclic aromatic hydrocarbon carcinogens from cells. The effect of the identified compounds on sensitivity of mouse cells to 7,12-dimethylbenz[a]anthracene (DMBA) was determined. […].

[6] = test system: SW1753-A120 cells; experiment: Drug sensitivity assay, SW1753-A120 cells (expressing MRP1); format: cell-based; conditions: P-gp-negative; for cell sensitivity to vinblastine: MRP1-positive cells SW1753-A120 (FIG. 13)
Protocol: (§4) To determine transporter specificity of the identified compounds, the compounds were tested on cells differing in the type of multidrug transporter expressed: KB-8-5-11 cells, (expressing P-gp), SW1753-A120 cells (expressing MRP1), and KB-3-1 (expressing neither of the above transporters and highly sensitive to drugs that are P-gp or MRP1 substrates).

[7] = target: T1, P-gp; experiment: P-gp-mediated efflux of taxol by KB-8-5-11 cells; format: cell-based; design: overexpressing P-gp as a result of MDR1 gene amplification (20); endogenous in cells; host or cells: KB-8-5-11 (multidrug resistant derivative of KB-3-1)
Description: as §1
Consistent with the drug sensitivity data, Compound 102 suppressed P-gp-mediated efflux of taxol by KB-8-5-11 cells, acting as a P-gp inhibitor for this drug (FIGS. 4 and 5). These observations indicate that Compound 102 should be defined as a modulator rather than a general activator of P-gp that acts by changing relative substrate specificity of the transporter.

[8] = test system: KB-3-1 cells; experiment: Drug sensitivity assay, KB-3-1 cells (P-gp-negative); format: cell-based, human
Protocol: (§5) Drug sensitivity assays. To estimate drug-mediated growth inhibition, 10^3 cells were plated per well of 96-well plates, and incubated with a range of concentrations of drugs added 24 hours after plating. After 5 to […] of drug treatment, plates were fixed and stained using 2% methylene blue solution in 50% methanol. After elution by 1% SDS solution, optical density was determined on a Multiscan Ascent reader (Lybsystems, Helsinki, Finland) at 650 nm.
as §4

[9] = test system: KB-8-5-11 cells; experiment: Drug sensitivity assay, KB-8-5-11 cells (P-gp-positive); format: cell-based, human; conditions: for IC50: Homo sapiens, human KB-8-5-11 cells, read-out: 50% growth inhibitory dose of the drug
Protocol: as §5, §4

[10] = DMBA sensitivity of mouse cells; format: cell-based; conditions: mouse fibroblasts, three days, without Compound 102; read-out: IC50 of DMBA cytotoxicity
Protocol: as §3

[11] = test system: P-gp
Protocol: as §5, §2

[12] = target: T1, P-gp
[13] = target: T1, P-gp; remark: listed apart in the source
[14] = test system: P-gp; experiment: Rho123 accumulation in ConA cells; format: cell-based, mouse; conditions: identified compounds present
Protocol: Screening of a chemical library. Murine fibroblastoid cell line (ConA) was selected as the readout system for screening a chemical library for P-gp activators. […] Rho123, a classic fluorescent P-gp substrate that is detected easily using multichannel fluorimeter in living cells, was used as an efflux indicator. […] Primary screening was performed on ConA cells for compounds that interfere with Adr-induced activation of p53-responsive reporter LacZ gene as previously described (11). To identify P-gp modulators, all “hits” isolated after primary screening were tested for their ability to modulate cellular accumulation of Rho123. Con A cells grown in 96-well plates were incubated 4 hours with 0.5 μM Rho123 in combination with individual library compounds (2 μg/ml (2-5 μM)), and cell fluorescence was analyzed using fluorescent microscopy.
as §2
ConA cells were incubated two hours with Rho123 ([…]) or daunorubicin (500 ng/ml) in the presence of the identified compounds, and accumulation of the drugs was quantitated by flow cytometry.

T1 sequence (P08183 whole entry): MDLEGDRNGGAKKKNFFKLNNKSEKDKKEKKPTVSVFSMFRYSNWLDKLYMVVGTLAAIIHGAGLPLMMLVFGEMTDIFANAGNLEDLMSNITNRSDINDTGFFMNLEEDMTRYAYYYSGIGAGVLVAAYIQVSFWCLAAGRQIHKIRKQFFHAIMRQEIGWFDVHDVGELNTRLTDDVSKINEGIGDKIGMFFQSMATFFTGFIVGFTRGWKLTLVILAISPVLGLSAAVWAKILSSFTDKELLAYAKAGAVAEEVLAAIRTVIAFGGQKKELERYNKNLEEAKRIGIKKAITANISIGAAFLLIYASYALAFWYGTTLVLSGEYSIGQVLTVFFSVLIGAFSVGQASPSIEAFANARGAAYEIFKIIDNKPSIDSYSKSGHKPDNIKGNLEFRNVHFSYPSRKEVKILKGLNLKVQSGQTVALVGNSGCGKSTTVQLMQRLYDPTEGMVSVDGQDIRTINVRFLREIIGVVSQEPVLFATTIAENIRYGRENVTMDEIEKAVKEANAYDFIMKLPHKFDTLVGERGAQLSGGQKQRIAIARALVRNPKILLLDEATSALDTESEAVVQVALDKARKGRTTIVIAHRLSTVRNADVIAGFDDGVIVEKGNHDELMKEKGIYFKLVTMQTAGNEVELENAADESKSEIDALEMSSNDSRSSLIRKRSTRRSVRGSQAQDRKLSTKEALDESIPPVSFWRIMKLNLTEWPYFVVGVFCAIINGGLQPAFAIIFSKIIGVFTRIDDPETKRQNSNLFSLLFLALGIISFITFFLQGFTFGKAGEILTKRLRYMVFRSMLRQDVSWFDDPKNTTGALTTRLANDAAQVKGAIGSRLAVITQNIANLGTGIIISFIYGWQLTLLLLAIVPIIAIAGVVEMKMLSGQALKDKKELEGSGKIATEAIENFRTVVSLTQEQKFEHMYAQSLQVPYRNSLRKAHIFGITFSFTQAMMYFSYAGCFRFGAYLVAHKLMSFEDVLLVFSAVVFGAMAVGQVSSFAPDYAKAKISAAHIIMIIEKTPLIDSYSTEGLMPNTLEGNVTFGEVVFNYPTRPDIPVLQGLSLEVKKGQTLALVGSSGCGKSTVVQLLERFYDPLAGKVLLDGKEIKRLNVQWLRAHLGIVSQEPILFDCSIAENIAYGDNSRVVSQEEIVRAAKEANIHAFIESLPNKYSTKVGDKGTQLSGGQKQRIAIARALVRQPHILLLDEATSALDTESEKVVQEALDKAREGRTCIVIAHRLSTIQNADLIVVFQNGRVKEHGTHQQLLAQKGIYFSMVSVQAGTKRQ

For `Cc1ccc(-c2cn3c4c(sc3n2)CCCC4)cc1` [Compound 102, 2-p-Tolyl-5,6,7,8-tetrahydro-benzo[d]imidazo[2,1-b]thiazole], the “cell sensitivity to colcemide” value ([1]; ConA cells grown 72 hours with drug with or without Compound 102 (FIG. 6)) was “no effect”, the Rho123 accumulation [2] was “strongly decreased” and the “increase of efflux of Rho123 from cells preloaded with the dye” value ([3]; ConA cells loaded with Rho123, Rho123-free medium, with vs without Compound 102 (FIGS. 2 and 3)) was “about 20 times”. The resistance to doxorubicin ([4]; mouse ConA fibroblasts expressing human P-gp (FIG. 10)) was “increased resistance”, the resistance to vinblastine ([4]; mouse ConA fibroblasts expressing human P-gp (data not shown)) was “decreased resistance” and the “protection of cells from cytotoxicity of DMBA” value [5] was “strongly protects”. The “increase of natural level of resistance to DMBA” value ([5]; mouse fibroblasts, 10 μM Compound 102) was “greater than 15 fold”, the “cell sensitivity to vinblastine” value [6] was “no effect” and the “cell sensitivity to doxorubicin” value ([6]; MRP1-positive cells SW1753-A120 (FIG. 16)) was “no effect”. For the same compound, the “P-gp-mediated efflux of taxol” value [7] was “suppressed” and the “effect on drug sensitivity” value ([8]; P-gp-negative cell line KB-3-1) was “No effect”.

For `Cc1ccccc1Cn1c(=O)sc2ccccc21` [Compound 103], the “cell sensitivity to vinblastine” value [6] was “increases; also recorded: weak sensitizing effect”, the “cell sensitivity to doxorubicin” value ([9]; P-gp-positive cells KB-8-5-11 (FIG. 15)) was “increase cell sensitivity” and the “cell sensitivity to vinblastine” value ([8]; P-gp- and MRP1-negative cells KB-3-1 (FIG. 14)) was “weak sensitizing effect”. The “cell sensitivity to doxorubicin” value ([8]; P-gp- and MRP1-negative cells KB-3-1 (FIG. 17)) was “can increase cell resistance”.

Work on `Cc1c2ccccc2c(C)c2c1ccc1ccccc12` [DMBA, 7,12-dimethylbenz[a]anthracene] yielded an IC50 at 3 days [10] of 310 nM and an IC50 ([5]; Mus musculus, Fibroblast, 72 h, read-out: IC50 of DMBA cytotoxicity) of 5 µM.

With `COc1cccc2c1C(=O)c1c(O)c3c(c(O)c1C2=O)C[C@@](O)(C(=O)CO)C[C@@H]3O[C@H]1C[C@H](N)[C@H](O)[C@H](C)O1` [Doxorubicin, adriamycin] the “Change in sensitivity (x-fold)” value ([1]; ConA cells, Compound 102 (10 μM), fold resistance) was 6 x-fold, the IC50 ([1]; with Compound 102) was 0.3 µg/mL (≈ 0.552 µM) and the IC50 ([1]; without Compound 102) was 0.05 µg/mL (≈ 0.092 µM). For the same compound, the “Effect of Compound 102 on drug sensitivity of cell lines: ConA (Balb 3T3)” value ([1]; P-gp-positive ConA cells, label = drug) was “R”, the “cytotoxicity of the drug in the presence of Compound 102” value [11] was “less toxic” and the IC50 ([9]; with Compound 102) was 1.2 µg/mL (≈ 2.21 µM). For the same compound, the IC50 ([9]; without Compound 102) was 0.2 µg/mL (≈ 0.368 µM).

For `CC(=O)[C@H]1CC[C@H]2[C@@H]3CCC4=CC(=O)CC[C@]4(C)[C@H]3CC[C@]12C` [progesterone], the “effect on P-gp-mediated Rho123 efflux” value [12] was “weak effect” and the “changes in cell cross resistance to P-gp substrates tested” value [13] was “did not cause detectable changes”.

With `COC(=O)[C@H]1[C@H]2C[C@@H]3c4[nH]c5cc(OC)ccc5c4CCN3C[C@H]2C[C@@H](OC(=O)c2cc(OC)c(OC)c(OC)c2)[C@@H]1OC` [reserpine] the “effect of P-gp inhibitor on Compound 102-stimulated Rho123 efflux” value ([3]; ConA cells preloaded with Rho123, Compound 102 present) was “completely reverted” and the “effect of P-gp inhibitor on compound-mediated reduction of Adr and Rho123 accumulation” value [14] was “completely reverted”.
